Test results reported in publication PMC11779924 (Nature Communications, 2025).

What was measured:
[1] = test system: hypertensive rats with blood clot defect (BCD); assay: Rat BCD model: immunofluorescent staining of CD73&Fak, Runx2, Alp; assay type: in vivo; details: BCgel vs Ctrl, n = 6
[2] = test system: BCD rats; details: rat, in vivo
[3] = test system: hypertensive rats with blood clot defect (BCD); assay type: in vivo, rat; details: micro-CT
[4] = test system: healthy SD rats; details: subcutaneous implantation, n = 6
[5] = test system: beagles; assay: Beagle BCD model: overall toxicity incl. cardiotoxicity and organ H&E
[6] = test system: beagles with blood clot defect (heparin); set-up: species or system beagle; details: dog, in vivo
[7] = test system: hypertensive rats with blood clot defect (BCD); assay: Rat incisor extraction BCD model: coagulation time; assay type: in vivo; details: treated immediately after tooth extraction, n = 12
[8] = test system: beagles with blood clot defect (heparin); assay: Beagle tooth extraction BCD model: coagulation time; assay type: in vivo; details: treated immediately after tooth extraction, n = 7

(RADA)4GSVLGYIQIR [BCgel]
increase in CD73+&Fak+ double positive cells ([1]; one-month post-treatment): 15 fold
increase in CD73+&Fak+ double positive cells ([1]; one-week post-treatment): 31 fold
increase in bone mineral density (BMD) [2]: 39%
reduction in trabecular separation (Tb.Sp) [2]: 50%
osteogenic effects of mechanically unloaded BCgel ([3]; 0.5% BCgel vs gelform (Ctrl), n = 3): negligible osteogenic effects
decrease in Tb.Sp compared to the Ctrl group ([3]; 1 week post-treatment, n = 6): 47%
increase in BMD compared to the Ctrl group ([3]; 1 week post-treatment, n = 6): 73%
increase in BV/TV compared to the Ctrl group ([3]; 1 week post-treatment, n = 6): 84%
hematological parameters [4]: nor did they have any impact on hematological parameters
hepatic or renal function [4]: neither BCgel nor gelform induced any hepatic or renal abnormalities
immunotoxicity, hematotoxicity, hepatotoxicity, nephrotoxicity, cardiotoxicity ([5]; BCgel for two months, n = 4): did not result in any observed immunotoxicity
physiological toxicity (hematotoxicity, hepatotoxicity, nephrotoxicity, cardiotoxicity) ([5]; five months after tooth extraction, n = 3): no signs of physiological toxicity
elevation in Tb.N compared to the Ctrl group [6]: 56%
enhancement in BMD compared to the Ctrl group [6]: 105%
increase in BV/TV compared to the Ctrl group [6]: 143%
reduction in Tb.Sp compared to the Ctrl group [6]: 60%
reduction in coagulation time compared to gelform [7]: 55%
reduction in coagulation time vs gelform (Ctrl) [8]: 69%
